These results are taken from patent US20070066638A1, “RYANODINE RECEPTOR BLOCKERS FOR TREATING PAIN” (priority 2005, published 2007).

Each structure is given as a SMILES string. Marks after values point to notes of the source that are not given here.

In data set [1] the test system is sulprostone-induced allodynia in mice. The experiment in a line: Sulprostone model of transient allodynia. In kind it is in vivo. On the procedure: (§1) In mice, it is possible to induce transient allodynia by treating mice with chemical sensitizers. An interperitoneal injection (of a 1 ml/kg volume) of phenylephrine (an alphal receptor agonist) or sulprostone (a EP1 and EP3 prostaglandin receptor agonist) will induce transient allodynia. Alternatively, an intrathecal injection of NMDA (in a 5 ul volume) will also induce transient allodynia. The injected mice are assessed for allodynia once every 5 minutes over a 15-50 min period post injection by light stroking of the flank with a paintbrush. The allodynia response was ranked as follows: 0. No response; 1, mild squeaking with attempts to move away from the paintbrush; 2, vigorous squeaking, biting at the paintbrush and strong efforts to escape. Data is expressed as the average total score for each group. (Each animal can have a maximum score of 16 over the 50-min period.) * indicates significant difference (P<0.05) relative to sulprostone, NMDA or phenylephrine-treated rats.

The subject of data set [2] is phenylephrine-induced allodynia in mice. Nature of the data set: Phenylephrine model of transient allodynia. In kind it is in vivo. To be noted: maximum score 16. As to the method:
as §1

In another data set the test system is rats. Nature of the data set: Rotarod motor performance. The class given is in vivo, rat. Particulars: fifteen minutes post-dosing, acceleration mode 5-15 RPM, in s (unit assumed). An excerpt: The Rotamex® 4/8 Rota-rod is a device to test the motor performance decrement, performance time, partial or complete ataxia, and the motor coordination in laboratory animals. The principle of this system is to measure the time each animal manages to maintain walking on the moving rod. Drugs or conditions that cause muscular relaxation will interfere with this coordination and agility, causing the animal to fall from a safe height to a grid below.
The animals were conditioned before performing the test. Animals were required to pass three stages of conditioning on the Rota-rod prior to inclusion in the experiment. During the first stage of conditioning, animals were required to perch on the stationary rod for 30 seconds to accustom themselves to the environment.
Rats that fail to perch for 30 seconds will fall to the grid below. The fall alone typically serves as an adequate aversive stimulus and the animals learn to stay on the perch.
In the second stage of conditioning, the animals that passed the first stage of conditioning were then allowed to walk at a constant speed of 5-rpm for 90 seconds. Any animal that fell off the rod during this trial were allowed to fall to the grid below. Animals are required to stay on the rod for 90 seconds in three consecutive trials out of six total trials, or else they were excluded from the study.
In the final stage of conditioning, about 10-30 minutes after the last trial for each animal that passed the first two stages of conditioning, the animals were placed back on the rod in groups of four and allowed to run in an acceleration mode with a start speed of 5 rpm and an end speed of 15 rpm for 90 seconds. […] A mean performance time was calculated for all animals that managed to stay on the rotating rod for at least 80 seconds. […] Mean performance times were calculated and used as pre-drug baseline values. […] Fifteen minutes post-dosing, the animals were placed back on the rod and the mean performance time in acceleration mode (5-15 RPM) is measured again. […]
On the technique in general: Falling from the rotarod earlier than controls is read as motor impairment.

In data set [3] the test system is ryanodine receptor-channel complex. Particulars: See Biochemistry 2001, 40, 531-542; cited from earlier work.
The subject of another data set is Sprague-Dawley rats. The experiment in a line: Activity monitor (locomotor activity). The class given is in vivo, rat. Particulars: 10 mg/kg intraperitoneal, thirty minutes after injection. As to the method: Locomotor activity of male Sprague-Dawley rats (Charles River, Wilmington, Mass.) weighing approximately 300 grams was measured thirty minutes following intraperitoneal injection of vehicle or test compound. Test animals were placed in a dark chamber and a Digicom analyzer (Omnitech Electronic, Columbus, Ohio), which records the number of interruptions of an array of 32 photoelectric beams in the X and Y orientation, quantitated exploratory behavior during a five-minute period. Horizonal activity (HD) and total distance (TD) are presented, as well as % vehicle values. * indicates significant difference (P<0.05) relative to vehicle-treated rats.

Data set [4] relates to NMDA-induced allodynia in mice. Nature of the data set: NMDA model of transient allodynia. Particulars: maximum score 16. The class given is in vivo. As to the method:
as §1

Data set [5] deals with capsaicin-induced allodynia in Sprague-Dawley rats. The experiment in a line: Capsaicin model, tactile allodynia (von Frey filament). The class given is in vivo, rat. As to the method:
Intraplantar injection of capsaicin, the active ingredient in red hot chili peppers, will induce neurogenic inflammation and transient allodynia.
Methods/subjects: Eight to ten male Sprague-Dawley rats (Charle Rivers, Sprague-Dawley, 200-300 grams) were used in these experiments. Rats received a unitlateral intradermal injection (10 ul) of capsaicin (0.1%) superficially in the mid-plantar surface of the hind paw. A successful injection was confirmed by the apperance of a bleb after intraplantar capsaicin administartion. Capsaicin, the pungent ingredient in hot peppers, has been used to produce hyperalgesia (mildly painful sensory stimuli are perceived as highly painful) in humans. When applied topically or injected into the skin, capsaicin produces burning pain, hyperalgesia to heat within the immediate vicinity of capsaicin application, and mechanical hyperalgesia within a large sorrounding (Hohmann AG, et al.). On the rat hind paw, there are no major subjective behaviour or clinical observations such as marked redness, limping, chronic licking and swelling associated with this model except for the immediate bleb formation of the given agent on the plantar surface right after the injection and as reported in the literature, short term tactile allodynia, extreme thermal […] which persist for one week.
Allodynia Assessment: Rats were placed in Plexiglas cages positioned over an elevated wire mesh platform and habituated to the testing environment for 15 to 25 min before testing. Tactile allodynia was assessed using a single von frey filament (5.18) with a bending force of 10 grams (Dixon). Tactile allodynia refers to a nocifensive behavior elicited by a light touch or innocuous (here, mechanical) stimulus and was operationally defined as a lowering of the threshold for paw withdrawal from punctate mechanical stimulation (Hohmann AG, et al.). The filaments were positioned in contact with the hind paw for a duration of 5 s or until a withdrawal response occurred and repeated 10 consecutive times. This procedure was repeated three times to obtain a total of thirty responses and then averaged. Contralateral testing was also done; no capsaicin was given. Data are presented as paw withdrawl frequency (%). * indicates significant difference (P<0.05) relative to vehicle-treated rats.

For data set [6], the system named is rats with ligated L5 and L6 spinal nerves. The experiment in a line: Spinal nerve (L5/L6) ligation model of chronic pain, tactile allodynia by von Frey hairs. In kind it is in vivo, rat. Particulars: compared to a saline solution, 30 minutes after drug administration.

As to `CS(=O)(=O)NC(=O)CCC/C=C\C[C@H]1C(=O)C[C@@H](O)[C@@H]1/C=C/[C@@H](O)COc1ccccc1` [Sulprostone], in data set [1] (Sulprostone (I.P) 300 ng/kg alone, total score, maximum 16), the Mean pain score turned out to be 14.0 ± 0.5.

`CNC[C@H](O)c1cccc(O)c1` [PE, phenylephrine]: in data set [2] (PE 100 ng/kg alone), the Mean pain score was determined as 11.3 ± 0.9.

`O=C1CN(N=Cc2ccc(-c3ccc([N+](=O)[O-])cc3)o2)C(=O)N1` [Dantrolene, 1-[[5-(p-Nitrophenyl)furfurylidene]amino]hydantoin]: the “Mean time on bar” value with rats (3 mg/kg IP) is listed as 74.33 ± 7.47; in the data set with rats (10 mg/kg IP), 79.67 ± 5.43; in the data set on rats (20 mg/kg IP), 37.67 ± 10.4*. Also, the “action on ryanodine receptor-channel complex” value in data set [3] is on record as “antagonist of the ryanodine receptor-channel complex”. In the data set with Sprague-Dawley rats, this molecule showed an HA % vehicle of 82.4%. Also, the TD % vehicle with Sprague-Dawley rats is reported as 59.4%. Further, the “HA (horizontal activity)” value in the data set with Sprague-Dawley rats (five-minute period) turned out to be 1125.6 ± 114.5. For the same molecule, in the data set with Sprague-Dawley rats (five-minute period), the “TD (total distance)” value was determined as 290 ± 48.4. Also, the Mean pain score in data set [4] (NMDA 100 ng + Dantrolene 3 mg/kg) was 9.3 ± 0.8*; in data set [4] (NMDA 100 ng + Dantrolene 10 mg/kg), 7.0 ± 1.0*; in data set [2] (PE 100 ng/kg + Dantrolene 3 mg/kg), 9.4 ± 1.6; in data set [2] (PE 100 ng/kg + Dantrolene 10 mg/kg), 6.5 ± 1.2*; in data set [1] (Sulprostone 300 ng/kg + Dantrolene 3 mg/kg, maximum score 16), 12.6 ± 1.5; in data set [1] (Sulprostone 300 ng/kg + Dantrolene 10 mg/kg, maximum score 16) it was 9.5 ± 1.9*. Besides, the Mean pain score in data set [1] (Sulprostone 300 ng/kg + Dantrolene 20 mg/kg, maximum score 16) is given as 4.8 ± 0.9*. Further, the paw withdrawl frequency in data set [5] (Injected paw, 15 min after capsaicin, dantrolene 3 mg/kg IP 30 minutes before capsaicin) is on record as 36 ± 3.7%; in data set [5] (Injected paw, 30 min after capsaicin, dantrolene 3 mg/kg IP 30 minutes before capsaicin), 8 ± 1.7 * %; in data set [5] (Injected paw, 60 min after capsaicin, dantrolene 3 mg/kg IP 30 minutes before capsaicin), 7 ± 2.1%; in data set [5] (Injected paw, Baseline before Caps., dantrolene 3 mg/kg IP), 7 ± 0.9%; in data set [5] (Uninjected paw, 15 min., dantrolene 3 mg/kg IP), 5 ± 1.1%; in data set [5] (Uninjected paw, 30 min., dantrolene 3 mg/kg IP), 2 ± 1.1%. Also, the paw withdrawl frequency was found to be 3 ± 1.3% in data set [5] (Uninjected paw, 60 min., dantrolene 3 mg/kg IP) and 5 ± 1% in data set [5] (Uninjected paw, Baseline, dantrolene 3 mg/kg IP). Moreover, the “reversal of allodynic pain (tactile allodynia)” value in data set [6] (i.p. 300 ng/kg), in data set [6] (i.p. 3000 ng/kg), in data set [6] (i.p. 100 mg/kg) and in data set [6] (i.p. dose of 100 ng/kg) was “reverses the allodynic pain” each time.

Turning to `CN[C@H](CC(=O)O)C(=O)O` [NMDA], the Mean pain score in data set [4] (NMDA 100 ng intrathecal alone) came to 14.2 ± 1.1.
